Source: paper PMC7541675 (Molecular cancer therapeutics, 2020)
Where two headings read alike, the source gives them in different places. Values belong to the compound of their own block, whether it stands above or below them.

How the values were obtained:
[1] = in vivo
[2] = test system: ovarian cancer; conditions: cited from earlier work
[3] = Pharmacokinetic analyses of paclitaxel and sorafenib in plasma; conditions: paclitaxel 80 mg/m^2 IV, C1D15 (with sorafenib); for Cmax: human, iv, Cmax mean (SD)
[4] = test system: patients with advanced refractory solid tumors
[5] = 200 mg BID; cited from earlier work
[6] = clinical; conditions: human, in vivo; for Cmax: Cmax mean (SD); for half-life: t1/2 mean (SD)
[7] = test system: patients; conditions: cited from earlier work
[8] = paclitaxel without bevacizumab, AURELIA paclitaxel cohort
[9] = recurrent ovarian cancer patients
[10] = in combination bevacizumab plus sorafenib, previous phase I studies
[11] = bevacizumab added to paclitaxel, AURELIA paclitaxel cohort

paclitaxel exposure with concurrent sorafenib (drug interaction) [1]: no significant differences
Cmax ([3]; cohort 1, sorafenib 200 mg BID 5/7, n=6): 4350 ng/mL
Cmax ([3]; cohorts 2/2 expansion, sorafenib 200 mg BID 7/7, n=13): 3480 ng/mL
Cmax mean (SD) ([3]; cohort 3, sorafenib 400 mg BID 5/7, n=2): 3,804 (1306) ng/mL
Compound: CC(=O)O[C@H]1C(=O)[C@@]2(C)[C@H]([C@H](OC(=O)c3ccccc3)[C@]3(O)C[C@H](OC(=O)[C@H](O)[C@@H](NC(=O)c4ccccc4)c4ccccc4)C(C)=C1C3(C)C)[C@]1(OC(C)=O)CO[C@@H]1C[C@@H]2O [paclitaxel]
ORR [2, 8]: 30.2%
OS [2, 8]: 13.2 months
PFS [2, 8]: 3.9 months

Compound: CNC(=O)c1cc(Oc2ccc(NC(=O)Nc3ccc(Cl)c(C(F)(F)F)c3)cc2)ccn1 [sorafenib]
Median number of cycles before sorafenib dose reduction to 200 mg QD 5/7 ([4]; human, in vivo): 3 cycles
Patients needing further sorafenib dose reduction to 200 mg QOD ([4]; human, in vivo): 21%
Patients on study ≥ 4 months who had sorafenib dose reductions ([4]; human, in vivo): 76%
Patients requiring further sorafenib dose reduction to 200 mg QD 5/7 ([4]; human, in vivo): 62%
Recommended phase II dose (RP2D) ([4]; human, in vivo): 200 mg BID 5/7
Maximum tolerated dose (MTD) ([4]; sorafenib oral, with bevacizumab 5 mg/kg Q2W and paclitaxel 80 mg/m^2 QW x 3 every 4 weeks): 200 mg BID 7/7
t1/2 mean (SD) ([1]; human, po): 6.5 (2.2) h
AUC0–8 mean (SD) ([1]; human, po, 200 mg): 14,911 (8,174) ng*hr/mL
Cmax mean (SD) ([1]; human, po, 200 mg): 4,539 (2,333) ng/mL
ORR, single agent [2, 9]: 3%
OS, single agent [2, 9]: 16 months
PFS, single agent [2, 9]: 2 months
ORR ([2]; sorafenib dosed sequentially with topotecan, TRIAS randomized phase II, platinum-resistant ovarian cancer): 31%
PFS ([2]; sorafenib dosed sequentially with topotecan, TRIAS, p=0.002): 6.7 months
OS ([2]; sorafenib dosed sequentially with topotecan, TRIAS, p=0.017): 17 months
AUC0–8, historical values with sorafenib alone [5]: 6,000–16,000 ng*h/mL
Cmax ([6]; po, 200 mg): 2760 ng/mL
AUC(0-t) ([6]; po, 400 mg, AUC0–8 mean (SD)): 23000 ng·h/mL
Cmax ([6]; po, 400 mg): 3820 ng/mL
half-life ([6]; po, 400 mg): 7.8 h
half-life ([6]; po): 4 h
AUC(0-t) ([6]; sorafenib AUC0–8 in non-responders): 17300 ng·h/mL
AUC(0-t) ([6]; sorafenib AUC0–8 in responders): 38100 ng·h/mL
HFSR incidence expected with monotherapy ([7]; anti-VEGF monotherapy, all grades): 25–50%
grade 3 HFSR incidence expected with monotherapy ([7]; anti-VEGF monotherapy): 10%
maximum tolerated dose (MTD) of sorafenib [7, 10]: 200 mg twice daily (BID)

Compound: CC[C@@]1(O)C(=O)OCc2c1cc1n(c2=O)Cc2cc3c(CN(C)C)c(O)ccc3nc2-1 [topotecan]
OS ([2]; topotecan alone, TRIAS): 10 months
PFS ([2]; topotecan alone, TRIAS): 4.4 months

Compound: bevacizumab
PFS ([2]; bevacizumab added to chemotherapy, AURELIA, p<0.001): 6.7 months
OS ([2]; bevacizumab added to chemotherapy, AURELIA, p=0.174): 16.6 months
ORR [2, 11]: 53.3%
OS [2, 11]: 22.4 months
PFS [2, 11]: 10.4 months
ORR, single agent [2, 9]: 20%
OS, single agent [2, 9]: 17 months
HTN incidence expected with monotherapy ([7]; human, in vivo): 15–30%
maximum tolerated dose (MTD) of bevacizumab [7, 10]: 5 mg/kg Q2W
